Experimental data published in patent US20240316022A1 (TYRA BIOSCIENCES, INC., priority 2021, published 2024).
Structures can show the parent of a compound that is named as a salt. Where two headings read alike, the source gives them in different places.

Assays:
Assay in all cases: Kinase binding assay (kinase-tagged T7 phage, qPCR), Kd
FGFR2 = biological target: T1, FGFR2 (Homo sapiens, UniProt P21802)
T1 construct: made in house; host or cells: E. coli derived from BL21, infected with T7 phage
T1 sequence (P21802 22-821): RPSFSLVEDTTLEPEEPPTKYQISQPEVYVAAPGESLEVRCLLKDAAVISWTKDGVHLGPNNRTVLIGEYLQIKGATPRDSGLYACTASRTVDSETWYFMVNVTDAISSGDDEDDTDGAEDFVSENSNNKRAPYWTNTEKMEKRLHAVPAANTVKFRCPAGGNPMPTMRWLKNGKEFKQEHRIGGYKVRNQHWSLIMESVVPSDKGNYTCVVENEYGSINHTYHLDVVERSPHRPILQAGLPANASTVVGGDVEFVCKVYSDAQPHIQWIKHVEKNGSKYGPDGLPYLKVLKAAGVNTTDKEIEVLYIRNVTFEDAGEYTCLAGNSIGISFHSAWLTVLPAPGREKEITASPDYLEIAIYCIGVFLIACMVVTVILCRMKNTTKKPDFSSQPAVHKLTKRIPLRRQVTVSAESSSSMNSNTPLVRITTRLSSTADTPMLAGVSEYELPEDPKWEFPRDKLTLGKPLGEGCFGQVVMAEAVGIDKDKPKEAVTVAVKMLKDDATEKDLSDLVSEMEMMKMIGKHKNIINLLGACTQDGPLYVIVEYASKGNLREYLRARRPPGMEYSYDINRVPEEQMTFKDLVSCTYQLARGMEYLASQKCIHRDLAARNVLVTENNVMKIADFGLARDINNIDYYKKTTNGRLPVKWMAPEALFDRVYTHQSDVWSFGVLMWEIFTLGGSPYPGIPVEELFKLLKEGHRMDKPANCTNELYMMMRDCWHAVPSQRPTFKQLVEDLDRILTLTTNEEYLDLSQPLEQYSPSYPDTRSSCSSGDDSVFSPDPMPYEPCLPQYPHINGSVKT

FGFR1 = biological target: T2, FGFR1 (Homo sapiens, UniProt P11362)
T2 construct: made in house; host or cells: E. coli derived from BL21, infected with T7 phage
T2 sequence (P11362 22-822): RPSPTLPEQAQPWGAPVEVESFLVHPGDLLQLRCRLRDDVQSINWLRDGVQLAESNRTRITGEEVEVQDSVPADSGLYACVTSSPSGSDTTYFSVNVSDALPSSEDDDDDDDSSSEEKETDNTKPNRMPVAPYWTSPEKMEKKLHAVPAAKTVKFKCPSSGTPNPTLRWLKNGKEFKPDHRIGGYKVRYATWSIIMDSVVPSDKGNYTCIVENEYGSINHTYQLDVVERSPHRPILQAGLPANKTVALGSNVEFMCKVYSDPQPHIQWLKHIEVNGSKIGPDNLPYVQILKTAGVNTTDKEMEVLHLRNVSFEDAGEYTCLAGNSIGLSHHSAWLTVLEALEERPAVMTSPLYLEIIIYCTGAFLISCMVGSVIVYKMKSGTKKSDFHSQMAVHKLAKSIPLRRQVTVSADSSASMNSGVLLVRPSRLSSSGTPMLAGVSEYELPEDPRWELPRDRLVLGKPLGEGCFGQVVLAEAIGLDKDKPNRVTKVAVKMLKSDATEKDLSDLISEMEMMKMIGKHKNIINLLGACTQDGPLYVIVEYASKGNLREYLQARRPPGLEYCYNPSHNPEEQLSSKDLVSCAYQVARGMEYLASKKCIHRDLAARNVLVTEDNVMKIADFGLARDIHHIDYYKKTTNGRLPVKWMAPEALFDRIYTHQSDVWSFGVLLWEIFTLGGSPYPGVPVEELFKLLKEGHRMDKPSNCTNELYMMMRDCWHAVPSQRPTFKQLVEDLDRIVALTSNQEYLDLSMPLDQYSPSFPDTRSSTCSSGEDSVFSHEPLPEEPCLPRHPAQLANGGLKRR

FGFR3 = biological target: T3, FGFR3 (Homo sapiens, UniProt P22607)
T3 construct: made in house; host or cells: E. coli derived from BL21, infected with T7 phage
T3 sequence (P22607 23-806): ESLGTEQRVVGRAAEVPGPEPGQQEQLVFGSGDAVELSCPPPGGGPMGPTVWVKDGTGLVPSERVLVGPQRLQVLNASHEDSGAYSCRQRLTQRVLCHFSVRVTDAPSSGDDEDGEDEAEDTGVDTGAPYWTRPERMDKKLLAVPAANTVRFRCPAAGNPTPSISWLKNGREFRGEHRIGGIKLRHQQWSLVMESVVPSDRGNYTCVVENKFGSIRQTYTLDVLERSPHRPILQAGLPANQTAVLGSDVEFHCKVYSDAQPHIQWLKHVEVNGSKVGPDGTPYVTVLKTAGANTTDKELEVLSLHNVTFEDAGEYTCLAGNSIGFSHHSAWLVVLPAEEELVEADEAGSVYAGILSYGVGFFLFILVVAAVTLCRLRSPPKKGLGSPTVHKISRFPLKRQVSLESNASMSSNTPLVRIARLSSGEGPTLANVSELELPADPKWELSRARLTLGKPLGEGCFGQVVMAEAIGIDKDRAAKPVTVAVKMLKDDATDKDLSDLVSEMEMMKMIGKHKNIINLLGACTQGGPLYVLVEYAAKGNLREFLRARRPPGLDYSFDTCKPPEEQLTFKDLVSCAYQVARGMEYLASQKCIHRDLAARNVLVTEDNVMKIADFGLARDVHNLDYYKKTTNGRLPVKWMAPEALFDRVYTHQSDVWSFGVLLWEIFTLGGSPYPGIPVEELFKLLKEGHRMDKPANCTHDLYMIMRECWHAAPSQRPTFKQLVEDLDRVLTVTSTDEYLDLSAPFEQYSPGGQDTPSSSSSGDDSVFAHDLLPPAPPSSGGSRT

FGFR4 = biological target: T4, FGFR4 (Homo sapiens, UniProt P22455)
T4 construct: made in house; host or cells: E. coli derived from BL21, infected with T7 phage
T4 sequence (P22455 22-802): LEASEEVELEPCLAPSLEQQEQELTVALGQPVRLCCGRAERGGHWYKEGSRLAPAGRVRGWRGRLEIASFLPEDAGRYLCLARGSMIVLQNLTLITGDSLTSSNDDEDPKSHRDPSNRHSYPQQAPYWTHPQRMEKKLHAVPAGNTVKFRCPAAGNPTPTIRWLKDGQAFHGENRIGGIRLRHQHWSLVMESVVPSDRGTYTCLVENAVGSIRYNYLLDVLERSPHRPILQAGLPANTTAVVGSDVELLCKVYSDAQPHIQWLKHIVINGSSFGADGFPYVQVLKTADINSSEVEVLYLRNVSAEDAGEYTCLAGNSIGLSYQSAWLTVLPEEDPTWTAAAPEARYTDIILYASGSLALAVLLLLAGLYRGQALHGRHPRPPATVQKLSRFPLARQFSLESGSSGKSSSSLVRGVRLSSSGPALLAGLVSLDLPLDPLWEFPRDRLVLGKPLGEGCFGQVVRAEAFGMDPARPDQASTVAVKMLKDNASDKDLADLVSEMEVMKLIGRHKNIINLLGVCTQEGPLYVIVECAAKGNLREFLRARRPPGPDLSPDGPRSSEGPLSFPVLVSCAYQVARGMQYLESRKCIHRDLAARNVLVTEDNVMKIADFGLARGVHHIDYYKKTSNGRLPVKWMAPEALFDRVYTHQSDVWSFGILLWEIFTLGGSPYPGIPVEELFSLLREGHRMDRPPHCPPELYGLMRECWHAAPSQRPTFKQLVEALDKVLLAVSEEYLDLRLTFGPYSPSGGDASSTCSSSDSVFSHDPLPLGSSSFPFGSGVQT

Compound	Kd (FGFR2; read-out: FGFR2 (Kd nM))	Kd (FGFR1; read-out: FGFR1 (Kd nM))	Kd (FGFR3; read-out: FGFR3 (Kd nM))	Kd (FGFR4; read-out: FGFR4 (Kd nM))	Kd (FGFR2)	Kd (FGFR1)	Kd (FGFR3)	Kd (FGFR4)	Kd (FGFR1; given as a number, not a class symbol, read-out: FGFR1 (Kd nM))
COc1c(C)cc(-c2n[nH]c3ccc(O[C@H](C)c4c(C)cnnc4C)cc23)cc1C#N [Example 80, 5-[5-[(1R)-1-(3,5-dimethylpyridazin-4-yl)ethoxy]-1H-indazol-3-yl]-2-methoxy-3-methyl-benzonitrile]	0.1 to 100 nM	100 to 250 nM	0.1 to 100 nM	0.1 to 100 nM	–	–	–	–	–
COc1cc(-c2n[nH]c3ccc(O[C@H](C)c4c(Cl)cncc4Cl)cc23)cc(C#N)c1OC [Example 81, 5-[5-[(1R)-1-(3,5-dichloro-4-pyridyl)ethoxy]-1H-indazol-3-yl]-2,3-dimethoxy-benzonitrile]	> 1000 nM	> 1000 nM	> 1000 nM	0.1 to 100 nM	–	–	–	–	–
Cc1cnnc(C)c1[C@@H](C)Oc1ccc2[nH]nc(-c3cc(C#N)cc(C#N)c3)c2c1 [Example 83, 5-[5-[(1R)-1-(3,5-dimethylpyridazin-4-yl)ethoxy]-1H-indazol-3-yl]benzene-1,3-dicarbonitrile]	> 1000 nM	250 to 1000 nM	250 to 1000 nM	0.1 to 100 nM	–	–	–	–	–
Cc1cnnc(C)c1[C@@H](C)Oc1ccc2[nH]nc(-c3cc(C#N)cc(C4CC4)c3)c2c1 [Example 84, 3-cyclopropyl-5-[5-[(1R)-1-(3,5-dimethyl-pyridazin-4-yl)ethoxy]-1H-indazol-3-yl]benzonitrile]	250 to 1000 nM	250 to 1000 nM	0.1 to 100 nM	0.1 to 100 nM	–	–	–	–	–
COc1c(C#N)cc(-c2n[nH]c3ccc(O[C@H](C)c4c(C)cnnc4C)cc23)cc1C#N [Example 85, 5-[5-[(1R)-1-(3,5-dimethylpyridazin-4-yl)ethoxy]-1H-indazol-3-yl]-2-methoxy-benzene-1,3-dicarbonitrile]	> 1000 nM	> 1000 nM	250 to 1000 nM	0.1 to 100 nM	–	–	–	–	–
Cc1cnnc(C)c1[C@@H](C)Oc1ccc2[nH]nc(-c3cc(C#N)cc(C4CCCC4)c3)c2c1 [Example 86, 3-cyclopentyl-5-[5-[(1R)-1-(3,5-dimethylpyridazin-4-yl)ethoxy]-1H-indazol-3-yl]benzonitrile]	> 1000 nM	> 1000 nM	> 1000 nM	250 to 1000 nM	–	–	–	–	–
Cc1cnnc(C)c1[C@@H](C)Oc1ccc2[nH]nc(-c3cc(C#N)cc(N4CC5(CN(C)C5)C4)c3)c2c1 [Example 87, 3-[5-[(1R)-1-(3,5-dimethylpyridazin-4-yl)ethoxy]-1H-indazol-3-yl]-5-(6-methyl-2,6-diazaspiro[3.3]heptan-2-yl)benzonitrile]	250 to 1000 nM	> 1000 nM	250 to 1000 nM	250 to 1000 nM	–	–	–	–	–
COc1ncc(-c2n[nH]c3ccc(O[C@H](C)c4c(C)cnnc4C)cc23)cc1C#N [Example 88, 5-[5-[(1R)-1-(3,5-dimethylpyridazin-4-yl)ethoxy]-1H-indazol-3-yl]-2-methoxy-pyridine-3-carbonitrile]	250 to 1000 nM	250 to 1000 nM	100 to 250 nM	0.1 to 100 nM	–	–	–	–	–
Cc1cnnc(C)c1[C@@H](C)Oc1ccc2[nH]nc(-c3cnc(N(C)C)c(C#N)c3)c2c1 [Example 89, (R)-2-(dimethylamino)-5-(5-(1-(3,5-dimethylpyridazin-4-yl)ethoxy)-1H-indazol-3-yl)nicotinonitrile]	100 to 250 nM	100 to 250 nM	0.1 to 100 nM	0.1 to 100 nM	–	–	–	–	–
Cc1cnnc(C)c1[C@@H](C)Oc1ccc2[nH]nc(-c3cc(C#N)cc(C4CCOC4)c3)c2c1 (stereo partly drawn) [Example 90, 3-(5-((R)-1-(3,5-dimethylpyridazin-4-yl)ethoxy)-1H-indazol-3-yl)-5-(tetrahydrofuran-3-yl)benzonitrile]	0.1 to 100 nM	250 to 1000 nM	0.1 to 100 nM	0.1 to 100 nM	–	–	–	–	–
Cc1cnnc(C)c1[C@H](C)Oc1ccc2[nH]nc(-c3cc(C#N)cc(N4CC5(CN(C)C5)C4)c3)c2c1 [Example 91, (S)-3-(5-(1-(3,5-dimethylpyridazin-4-yl)ethoxy)-1H-indazol-3-yl)-5-(6-methyl-2,6-diazaspiro[3.3]heptan-2-yl)benzonitrile]	> 1000 nM	> 1000 nM	> 1000 nM	> 1000 nM	–	–	–	–	–
COc1cc(-c2n[nH]c3ccc(O[C@H](C)c4c(C)cnnc4C)cc23)cc(C#N)c1F [Example 93, (R)-5-(5-(1-(3,5-dimethylpyridazin-4-yl)ethoxy)-1H-indazol-3-yl)-2-fluoro-3-methoxybenzonitrile]	> 1000 nM	> 1000 nM	> 1000 nM	100 to 250 nM	–	–	–	–	–
C[C@@H](Oc1ccc2[nH]nc(-c3ccc4c(c3)COC3(CCNCC3)O4)c2c1)c1c(Cl)cncc1Cl [Example 94, (R)-6-(5-(1-(3,5-Dichloropyridin-4-yl)ethoxy)-1H-indazol-3-yl)-4H-spiro[benzo[d][1,3]dioxine-2,4′-piperidine] TFA salt]	–	–	–	–	0.1 to 100 nM	0.1 to 100 nM	0.1 to 100 nM	0.1 to 100 nM	–
COc1cc(C#N)cc(-c2n[nH]c3cc(OC)c(O[C@@H](C)c4c(C)cnnc4C)cc23)c1 [Example 97, (S)-3-(5-(1-(3,5-dimethylpyridazin-4-yl)ethoxy)-6-methoxy-1H-indazol-3-yl)-5-methoxybenzonitrile]	> 1000 nM	> 1000 nM	> 1000 nM	250 to 1000 nM	–	–	–	–	–
COc1cc(-c2n[nH]c3cc(OC)c(O[C@H](C)c4c(C)cnnc4C)cc23)cc(C#N)n1 [Example 98, (R)-4-(5-(1-(3,5-dimethylpyridazin-4-yl)ethoxy)-6-methoxy-1H-indazol-3-yl)-6-methoxypicolinonitrile]	100 to 250 nM	100 to 250 nM	100 to 250 nM	0.1 to 100 nM	–	–	–	–	–
CCN1CCC2(CC1)CC(=O)c1cc(-c3n[nH]c4ccc(O[C@H](C)c5c(C)cnnc5C)cc34)ccc1O2 [Example 99, (R)-6-(5-(1-(3,5-dimethylpyridazin-4-yl)ethoxy)-1H-indazol-3-yl)-1′-ethylspiro[chroman-2,4′-piperidin]-4-one]	0.1 to 100 nM	0.1 to 100 nM	0.1 to 100 nM	0.1 to 100 nM	–	–	–	–	–
COc1cc(-c2n[nH]c3ccc(O[C@H](C)c4c(C)cnnc4C)cc23)cc(C#N)n1 [Example 100, (R)-4-(5-(1-(3,5-dimethylpyridazin-4-yl)ethoxy)-1H-indazol-3-yl)-6-methoxypicolinonitrile]	250 to 1000 nM	250 to 1000 nM	100 to 250 nM	0.1 to 100 nM	–	–	–	–	–
COc1cc2[nH]nc(-c3cc(C#N)c(OC)c(OC)c3)c2cc1O[C@H](C)c1c(C)cnnc1C [Example 102, (R)-5-(5-(1-(3,5-dimethylpyridazin-4-yl)ethoxy)-6-methoxy-1H-indazol-3-yl)-2,3-dimethoxybenzonitrile]	100 to 250 nM	100 to 250 nM	0.1 to 100 nM	0.1 to 100 nM	–	–	–	–	–
CCN1CCC2(CC1)CC(O)c1cc(-c3n[nH]c4ccc(O[C@H](C)c5c(Cl)cncc5Cl)cc34)ccc1O2 (stereo partly drawn) [Example 103, 6-[5-[(1R)-1-(3,5-Dichloro-4-pyridyl)ethoxy]-1H-indazol-3-yl]-1′-ethyl-spiro[chromane-2,4′-piperidine]-4-ol]	100 to 250 nM	–	0.1 to 100 nM	0.1 to 100 nM	–	–	–	–	45 nM
C[C@@H](Oc1ccc2[nH]nc(-c3ccc4c(c3)CCC3(CCNCC3)O4)c2c1)c1c(Cl)cncc1Cl [Example 104, 6-[5-[(1R)-1-(3,5-dichloro-4-pyridyl)ethoxy]-1H-indazol-3-yl]spiro[chromane-2,4′-piperidine]]	0.1 to 100 nM	0.1 to 100 nM	0.1 to 100 nM	0.1 to 100 nM	–	–	–	–	–
COc1cc(-c2n[nH]c3ccc(O[C@H](C)c4c(Cl)cncc4Cl)cc23)cc(C#N)c1OC1CCNCC1 [Example 105, 5-[5-[(1R)-1-(3,5-dichloro-4-pyridyl)ethoxy]-1H-indazol-3-yl]-3-methoxy-2-(4-piperidyloxy)benzonitrile]	> 1000 nM	> 1000 nM	250 to 1000 nM	0.1 to 100 nM	–	–	–	–	–
CCN1CCC2(CC1)CC(O)c1cc(-c3n[nH]c4ccc(O[C@H](C)c5c(C)cnnc5C)cc34)ccc1O2 (stereo partly drawn) [Example 107, 6-(5-((R)-1-(3,5-dimethylpyridazin-4-yl)ethoxy)-1H-indazol-3-yl)-1′-ethylspiro[chroman-2,4′-piperidin]-4-ol]	0.1 to 100 nM	0.1 to 100 nM	0.1 to 100 nM	0.1 to 100 nM	–	–	–	–	–
COc1c(C)cc(-c2n[nH]c3ccc(O[C@H](C)c4c(Cl)cncc4Cl)cc23)cc1C#N [Example 108]	250 to 1000 nM	250 to 1000 nM	0.1 to 100 nM	0.1 to 100 nM	–	–	–	–	–
C[C@@H](Oc1ccc2[nH]nc(-c3cc(C#N)cc(C4CC4)c3)c2c1)c1c(Cl)cncc1Cl [Example 109, (R)-3-cyclopropyl-5-(5-(1-(3,5-dichloropyridin-4-yl)ethoxy)-1H-indazol-3-yl)benzonitrile]	> 1000 nM	> 1000 nM	250 to 1000 nM	0.1 to 100 nM	–	–	–	–	–
Cc1cc(-c2n[nH]c3ccc(O[C@H](C)c4c(C)cnnc4C)cc23)cc(C#N)c1OC1CCN(C(C)C)CC1 [Example 110, (R)-5-(5-(1-(3,5-dimethylpyridazin-4-yl)ethoxy)-1H-indazol-3-yl)-2-((1-isopropylpiperidin-4-yl)oxy)-3-methylbenzonitrile]	0.1 to 100 nM	0.1 to 100 nM	0.1 to 100 nM	0.1 to 100 nM	–	–	–	–	–
Cc1cc(-c2n[nH]c3ccc(O[C@H](C)c4c(C)cnnc4C)cc23)cc(C#N)c1OC1CCN(C2COC2)CC1 [Example 113, (R)-5-(5-(1-(3,5-dimethylpyridazin-4-yl)ethoxy)-1H-indazol-3-yl)-3-methyl-2-((1-(oxetan-3-yl)piperidin-4-yl)oxy)benzonitrile]	0.1 to 100 nM	0.1 to 100 nM	0.1 to 100 nM	0.1 to 100 nM	–	–	–	–	–
CCN1CCC(Oc2c(C)cc(-c3n[nH]c4ccc(O[C@H](C)c5c(C)cnnc5C)cc34)cc2C#N)CC1 [Example 115, (R)-5-(5-(1-(3,5-dimethylpyridazin-4-yl)ethoxy)-1H-indazol-3-yl)-2-((1-ethylpiperidin-4-yl)oxy)-3-methylbenzonitrile]	0.1 to 100 nM	0.1 to 100 nM	0.1 to 100 nM	0.1 to 100 nM	–	–	–	–	–
